Laboratory results published in PubChem BioAssay (NCI).
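Briefly, cells in 96-well plates were exposed to five compound concentrations for 48 h, and endpoints were estimated by linear interpolation. TGI is the concentration that stops growth completely.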

What was measured:
Experiment in all cases: NCI tumour cell line growth inhibition, 48 h
SNB-75 CNS = test system: SNB-75 CNS
MDA-MB-435 = test system: MDA-MB-435
ACHN renal = test system: ACHN renal
T-47D breast = test system: T-47D breast
RXF 393 renal = test system: RXF 393 renal
MOLT-4 leukemia = test system: MOLT-4 leukemia
HT29 colon = test system: HT29 colon
SN12C renal = test system: SN12C renal
HCT-15 colon = test system: HCT-15 colon
SW-620 colon = test system: SW-620 colon
RPMI-8226 leukemia = test system: RPMI-8226 leukemia
HCC-2998 colon = test system: HCC-2998 colon
SK-MEL-28 melanoma = test system: SK-MEL-28 melanoma
NCI-H226 lung = test system: NCI-H226 lung
CCRF-CEM leukemia = test system: CCRF-CEM leukemia
SK-OV-3 ovarian = test system: SK-OV-3 ovarian
HS 578T breast = test system: HS 578T breast
LOX IMVI melanoma = test system: LOX IMVI melanoma
SR leukemia = test system: SR leukemia
NCI-H460 lung = test system: NCI-H460 lung
NCI-H23 lung = test system: NCI-H23 lung
HOP-62 NSCLC = test system: HOP-62 NSCLC
MDA-MB-231 breast = test system: MDA-MB-231 breast
CAKI-1 renal = test system: CAKI-1 renal
TK-10 renal = test system: TK-10 renal
A498 renal = test system: A498 renal
COLO 205 colon = test system: COLO 205 colon
MCF7 breast = test system: MCF7 breast
786-0 renal = test system: 786-0 renal
KM12 colon = test system: KM12 colon
MALME-3M melanoma = test system: MALME-3M melanoma
U251 CNS = test system: U251 CNS
DU-145 prostate = test system: DU-145 prostate
MDA-N = test system: MDA-N
OVCAR-3 ovarian = test system: OVCAR-3 ovarian
HCT-116 colon = test system: HCT-116 colon
HL-60(TB) leukemia = test system: HL-60(TB) leukemia
UACC-62 melanoma = test system: UACC-62 melanoma
OVCAR-4 ovarian = test system: OVCAR-4 ovarian
OVCAR-8 ovarian = test system: OVCAR-8 ovarian
SF-268 CNS = test system: SF-268 CNS
K-562 leukemia = test system: K-562 leukemia
EKVX NSCLC = test system: EKVX NSCLC
BT-549 breast = test system: BT-549 breast
NCI-H522 lung = test system: NCI-H522 lung
UO-31 renal = test system: UO-31 renal
SK-MEL-2 melanoma = test system: SK-MEL-2 melanoma
SNB-19 CNS = test system: SNB-19 CNS
NCI/ADR-RES ovarian = test system: NCI/ADR-RES ovarian
SK-MEL-5 melanoma = test system: SK-MEL-5 melanoma
SF-539 CNS = test system: SF-539 CNS
PC-3 prostate = test system: PC-3 prostate
IGROV1 ovarian = test system: IGROV1 ovarian
OVCAR-5 ovarian = test system: OVCAR-5 ovarian
A549 NSCLC = test system: A549 NSCLC
SF-295 CNS = test system: SF-295 CNS
HOP-92 NSCLC = test system: HOP-92 NSCLC
UACC-257 melanoma = test system: UACC-257 melanoma
M14 melanoma = test system: M14 melanoma

SMILES: O=C1C(NCCc2ccc(O)c(O)c2)=CC(=O)c2ncccc21
- TGI (SNB-75 CNS): 29.4 µM
- TGI (MDA-MB-435): 3.28 µM
- TGI (ACHN renal): 33.5 µM
- TGI (T-47D breast): 65.3 µM
- TGI (RXF 393 renal): 28.4 µM
- TGI (MOLT-4 leukemia): 34.6 µM
- TGI (HT29 colon): > 93.3 µM
- TGI (SN12C renal): 34.4 µM
- TGI (HCT-15 colon): 55.7 µM
- TGI (SW-620 colon): 32.3 µM
- TGI (RPMI-8226 leukemia): > 70 µM
- TGI (HCC-2998 colon): 27.8 µM
- TGI (SK-MEL-28 melanoma): 28.8 µM
- TGI (NCI-H226 lung): 30.5 µM
- TGI (CCRF-CEM leukemia): 60.4 µM
- TGI (SK-OV-3 ovarian): 38.5 µM
- TGI (HS 578T breast): 45.2 µM
- TGI (LOX IMVI melanoma): 26.7 µM
- TGI (SR leukemia): > 100 µM
- TGI (NCI-H460 lung): 29.4 µM
- TGI (NCI-H23 lung): > 78.3 µM
- TGI (HOP-62 NSCLC): 49.9 µM
- TGI (MDA-MB-231 breast): 16.1 µM
- TGI (CAKI-1 renal): 21.5 µM
- TGI (TK-10 renal): > 71.6 µM
- TGI (A498 renal): 46.7 µM
- TGI (COLO 205 colon): 28 µM
- TGI (MCF7 breast): 15.8 µM
- TGI (786-0 renal): 43.2 µM
- TGI (KM12 colon): 30.5 µM
- TGI (MALME-3M melanoma): 18.4 µM
- TGI (U251 CNS): 12.8 µM
- TGI (DU-145 prostate): 24 µM
- TGI (MDA-N): 4.74 µM
- TGI (OVCAR-3 ovarian): 7.77 µM
- TGI (HCT-116 colon): 29 µM
- TGI (HL-60(TB) leukemia): 60.3 µM
- TGI (UACC-62 melanoma): 22.5 µM
- TGI (OVCAR-4 ovarian): 50.9 µM
- TGI (OVCAR-8 ovarian): 57.3 µM
- TGI (SF-268 CNS): 66.5 µM
- TGI (K-562 leukemia): 20.2 µM
- TGI (EKVX NSCLC): 52 µM
- TGI (BT-549 breast): 19.6 µM
- TGI (NCI-H522 lung): 7.31 µM
- TGI (UO-31 renal): 24.4 µM
- TGI (SK-MEL-2 melanoma): 21.5 µM
- TGI (SNB-19 CNS): 45.8 µM
- TGI (NCI/ADR-RES ovarian): 25.1 µM
- TGI (SK-MEL-5 melanoma): 15.4 µM
- TGI (SF-539 CNS): 30.1 µM
- TGI (PC-3 prostate): > 100 µM
- TGI (IGROV1 ovarian): 27.2 µM
- TGI (OVCAR-5 ovarian): 40.2 µM
- TGI (A549 NSCLC): 35.7 µM
- TGI (SF-295 CNS): 28.5 µM
- TGI (HOP-92 NSCLC): 54.3 µM
- TGI (UACC-257 melanoma): 24.8 µM
- TGI (M14 melanoma): 40.5 µM
